Test results: ChEMBL document CHEMBL4665643 (Bioorg Med Chem Lett, 2019)
pKi: −log10 of the molar value.

What was measured:
Janus Kinase (JAK) = Janus Kinase (JAK) (Homo sapiens, UniProt P52333+P23458+O60674+P29597); settings: beas-2b
Description: Inhibition of JAK in human BEAS-2B cells assessed as reduction in IL13-induced STAT6 phosphorylation incubated for 1 hr followed by IL13 addition and measured after 15 mins by immunofluorescence assay

[1] = molecular target: Tyrosine-protein kinase JAK1 (Homo sapiens, UniProt P23458); assay: biochemical
Description: Inhibition of recombinant human JAK1 (854 to 1154 residues) expressed in insect cells using Y1-B as substrate incubated for 30 mins by microfluidic mobility shift assay

[2] = molecular target: Tyrosine-protein kinase JAK2 (Homo sapiens, UniProt O60674)
Description: Inhibition of recombinant human JAK2 (812 to 1132 residues) expressed in insect cells using Y1-B as substrate incubated for 30 mins by microfluidic mobility shift assay

in vitro [3] = settings: dog, MDCK
Description: Apparent permeability across apical to basolateral side in MDCK cells at 10 uM incubated upto 180 mins by LC/MS-MS analysis

in vitro [4] = settings: dog, MDCK; remark: listed apart in the source
Description: Efflux ratio of apparent permeability basolateral to apical over apical to basolateral side in MDCK cells at 10 uM incubated upto 180 mins by LC/MS-MS analysis

[5] = Lipophilicity, logD of compound; assay type: physicochemical; settings: octanol/water
LRRK2 = LRRK2 (Homo sapiens, UniProt Q5S007); assay: Inhibition of recombinant human GST-tagged LRRK2 (970 to 2527 residues) expressed in baculovirus expression system using LRRKtide as substrate at 0.1 uM incubated for 60 mins by Adapta assay relative to control; settings: probe LRRKtide
[6] = Metabolic stability in human liver microsomes assessed as intrinsic clearance at 1 uM measured upto 60 mins by LC-MS/MS analysis; assay type: ADME, Microsome; settings: read-out: CLH

Chain of LRRK2 (Q5S007 whole entry, the tested form may be a part): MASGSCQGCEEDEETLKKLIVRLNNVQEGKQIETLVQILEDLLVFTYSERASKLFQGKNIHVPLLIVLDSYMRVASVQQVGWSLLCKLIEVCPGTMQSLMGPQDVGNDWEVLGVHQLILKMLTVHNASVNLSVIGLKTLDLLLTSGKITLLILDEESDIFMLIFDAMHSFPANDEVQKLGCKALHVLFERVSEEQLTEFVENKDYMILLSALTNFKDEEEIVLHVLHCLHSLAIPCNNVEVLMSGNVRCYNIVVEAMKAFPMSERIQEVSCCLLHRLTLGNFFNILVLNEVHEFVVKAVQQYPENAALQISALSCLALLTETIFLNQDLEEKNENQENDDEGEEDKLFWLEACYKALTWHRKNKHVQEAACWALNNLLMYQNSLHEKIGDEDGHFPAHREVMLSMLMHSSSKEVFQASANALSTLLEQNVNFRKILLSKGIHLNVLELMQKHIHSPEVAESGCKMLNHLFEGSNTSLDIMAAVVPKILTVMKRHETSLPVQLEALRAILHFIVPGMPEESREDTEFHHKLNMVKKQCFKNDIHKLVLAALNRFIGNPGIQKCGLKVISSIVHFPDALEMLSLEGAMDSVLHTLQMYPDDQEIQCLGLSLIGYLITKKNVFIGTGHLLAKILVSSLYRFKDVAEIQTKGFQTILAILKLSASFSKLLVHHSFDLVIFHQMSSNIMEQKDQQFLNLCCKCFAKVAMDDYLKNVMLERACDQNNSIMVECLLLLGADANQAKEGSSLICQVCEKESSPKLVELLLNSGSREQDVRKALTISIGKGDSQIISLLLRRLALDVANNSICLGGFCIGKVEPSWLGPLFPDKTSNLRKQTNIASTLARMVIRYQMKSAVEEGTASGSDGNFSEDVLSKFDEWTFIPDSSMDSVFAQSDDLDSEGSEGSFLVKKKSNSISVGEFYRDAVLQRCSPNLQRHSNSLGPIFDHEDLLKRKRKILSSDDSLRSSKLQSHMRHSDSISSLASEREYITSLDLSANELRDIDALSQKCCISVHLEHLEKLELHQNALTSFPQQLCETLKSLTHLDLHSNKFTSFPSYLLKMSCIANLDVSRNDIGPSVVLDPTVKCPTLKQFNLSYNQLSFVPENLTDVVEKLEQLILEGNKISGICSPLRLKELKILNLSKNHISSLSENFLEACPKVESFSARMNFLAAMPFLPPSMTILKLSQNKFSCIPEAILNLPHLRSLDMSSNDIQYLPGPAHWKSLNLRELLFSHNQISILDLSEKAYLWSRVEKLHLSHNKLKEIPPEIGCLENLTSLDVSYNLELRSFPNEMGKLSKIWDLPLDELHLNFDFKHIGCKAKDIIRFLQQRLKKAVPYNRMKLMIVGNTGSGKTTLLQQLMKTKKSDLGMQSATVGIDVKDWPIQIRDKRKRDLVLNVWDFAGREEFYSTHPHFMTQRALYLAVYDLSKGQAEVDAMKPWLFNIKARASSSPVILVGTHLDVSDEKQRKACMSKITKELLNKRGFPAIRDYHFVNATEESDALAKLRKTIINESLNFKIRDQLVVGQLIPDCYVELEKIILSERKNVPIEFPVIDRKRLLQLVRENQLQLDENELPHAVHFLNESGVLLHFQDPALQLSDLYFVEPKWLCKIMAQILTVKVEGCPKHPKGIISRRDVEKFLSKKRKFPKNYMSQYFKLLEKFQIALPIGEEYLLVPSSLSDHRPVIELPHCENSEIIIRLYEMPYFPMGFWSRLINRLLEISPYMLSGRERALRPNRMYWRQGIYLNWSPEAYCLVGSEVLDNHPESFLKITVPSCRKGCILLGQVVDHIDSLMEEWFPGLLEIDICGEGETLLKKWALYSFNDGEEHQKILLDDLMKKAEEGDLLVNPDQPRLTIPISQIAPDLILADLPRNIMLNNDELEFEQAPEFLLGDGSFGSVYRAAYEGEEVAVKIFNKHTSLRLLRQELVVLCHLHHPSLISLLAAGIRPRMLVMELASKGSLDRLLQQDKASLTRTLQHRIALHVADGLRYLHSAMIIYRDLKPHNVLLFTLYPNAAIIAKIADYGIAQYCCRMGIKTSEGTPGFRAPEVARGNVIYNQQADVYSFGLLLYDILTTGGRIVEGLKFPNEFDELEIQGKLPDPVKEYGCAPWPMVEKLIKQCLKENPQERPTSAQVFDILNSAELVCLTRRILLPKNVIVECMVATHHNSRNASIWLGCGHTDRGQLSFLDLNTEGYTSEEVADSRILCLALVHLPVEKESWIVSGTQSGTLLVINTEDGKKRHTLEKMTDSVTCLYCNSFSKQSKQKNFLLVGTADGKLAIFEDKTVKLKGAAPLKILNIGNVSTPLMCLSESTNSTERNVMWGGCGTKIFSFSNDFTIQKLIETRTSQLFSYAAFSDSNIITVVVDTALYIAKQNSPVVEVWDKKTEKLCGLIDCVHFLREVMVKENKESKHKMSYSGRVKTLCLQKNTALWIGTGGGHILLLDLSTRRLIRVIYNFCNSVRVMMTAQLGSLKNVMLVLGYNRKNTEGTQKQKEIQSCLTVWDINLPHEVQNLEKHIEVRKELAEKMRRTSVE
Chain of Tyrosine-protein kinase JAK1 (P23458 whole entry): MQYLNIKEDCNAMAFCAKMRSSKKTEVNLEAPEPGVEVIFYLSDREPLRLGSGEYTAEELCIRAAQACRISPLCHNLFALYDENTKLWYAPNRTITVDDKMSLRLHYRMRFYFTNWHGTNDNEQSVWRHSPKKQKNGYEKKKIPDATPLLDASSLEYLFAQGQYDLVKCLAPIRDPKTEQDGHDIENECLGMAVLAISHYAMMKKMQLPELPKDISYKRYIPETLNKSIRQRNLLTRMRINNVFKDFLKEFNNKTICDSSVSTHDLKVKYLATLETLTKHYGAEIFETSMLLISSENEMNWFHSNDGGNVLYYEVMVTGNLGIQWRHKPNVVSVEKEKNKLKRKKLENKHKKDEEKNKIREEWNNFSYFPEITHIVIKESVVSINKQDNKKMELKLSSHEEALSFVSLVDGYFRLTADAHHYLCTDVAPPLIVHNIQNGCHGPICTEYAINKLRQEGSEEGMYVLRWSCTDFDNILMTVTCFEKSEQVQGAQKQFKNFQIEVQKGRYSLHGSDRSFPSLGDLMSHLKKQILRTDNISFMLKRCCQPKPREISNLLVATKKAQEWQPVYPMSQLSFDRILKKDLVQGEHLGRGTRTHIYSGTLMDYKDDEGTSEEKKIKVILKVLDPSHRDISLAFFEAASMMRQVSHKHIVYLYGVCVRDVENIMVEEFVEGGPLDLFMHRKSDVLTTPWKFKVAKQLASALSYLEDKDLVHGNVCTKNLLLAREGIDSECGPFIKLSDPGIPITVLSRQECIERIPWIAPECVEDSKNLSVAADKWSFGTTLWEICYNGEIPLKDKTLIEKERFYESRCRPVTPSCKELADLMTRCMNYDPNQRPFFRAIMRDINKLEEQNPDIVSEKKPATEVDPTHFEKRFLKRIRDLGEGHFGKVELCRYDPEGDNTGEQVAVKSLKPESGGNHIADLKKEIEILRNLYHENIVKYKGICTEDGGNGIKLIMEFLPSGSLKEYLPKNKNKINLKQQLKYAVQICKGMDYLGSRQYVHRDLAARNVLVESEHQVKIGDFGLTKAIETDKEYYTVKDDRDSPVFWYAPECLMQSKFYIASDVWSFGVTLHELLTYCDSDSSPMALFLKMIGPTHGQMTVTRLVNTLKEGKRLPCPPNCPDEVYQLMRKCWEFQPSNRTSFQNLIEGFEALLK
Chain of Tyrosine-protein kinase JAK2 (O60674 whole entry): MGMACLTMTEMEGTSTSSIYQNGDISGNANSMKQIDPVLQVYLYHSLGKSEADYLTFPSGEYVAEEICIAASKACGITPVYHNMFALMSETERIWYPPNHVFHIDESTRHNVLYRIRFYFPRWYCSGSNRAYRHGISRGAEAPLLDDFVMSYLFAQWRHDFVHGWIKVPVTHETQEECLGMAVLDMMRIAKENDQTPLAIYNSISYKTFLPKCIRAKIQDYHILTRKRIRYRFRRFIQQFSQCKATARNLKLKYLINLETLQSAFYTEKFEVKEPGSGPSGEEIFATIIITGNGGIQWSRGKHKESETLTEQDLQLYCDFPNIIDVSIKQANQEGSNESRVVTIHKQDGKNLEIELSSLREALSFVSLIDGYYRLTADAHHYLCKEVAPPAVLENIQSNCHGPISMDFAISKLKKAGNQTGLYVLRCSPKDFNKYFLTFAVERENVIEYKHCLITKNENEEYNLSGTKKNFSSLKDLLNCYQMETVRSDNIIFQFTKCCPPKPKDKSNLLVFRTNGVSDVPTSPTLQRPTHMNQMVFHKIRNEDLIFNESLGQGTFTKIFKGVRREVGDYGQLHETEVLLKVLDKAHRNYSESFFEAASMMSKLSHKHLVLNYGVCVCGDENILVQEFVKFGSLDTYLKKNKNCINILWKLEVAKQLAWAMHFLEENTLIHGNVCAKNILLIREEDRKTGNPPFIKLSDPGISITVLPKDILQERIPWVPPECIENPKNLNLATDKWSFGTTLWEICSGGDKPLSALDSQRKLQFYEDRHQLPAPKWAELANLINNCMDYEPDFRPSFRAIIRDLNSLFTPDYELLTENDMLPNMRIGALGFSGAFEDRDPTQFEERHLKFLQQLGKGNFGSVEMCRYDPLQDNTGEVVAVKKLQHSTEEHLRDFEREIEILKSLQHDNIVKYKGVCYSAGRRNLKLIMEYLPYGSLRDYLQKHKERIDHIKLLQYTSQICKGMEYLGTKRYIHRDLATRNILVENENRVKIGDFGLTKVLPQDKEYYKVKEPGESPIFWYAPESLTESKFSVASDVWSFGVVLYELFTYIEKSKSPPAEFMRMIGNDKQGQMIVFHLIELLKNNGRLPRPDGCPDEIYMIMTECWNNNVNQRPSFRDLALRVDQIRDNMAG

Structure (SMILES)	IC50 (Janus Kinase (JAK)) [nM]	pKi [1]	pKi [2]	Papp A→B at 3 h, 10 µM (in vitro [3]) [×10⁻⁶ cm/s]	efflux ratio at 3 h, 10 µM (in vitro [4])	logD [5]	inhibition at 1 h, 0.1 µM (LRRK2) [%]	CLint scaled at 1 µM [6] [mL/min/kg]
CSc1ccc(Cl)cc1-c1nn(C)cc1NC(=O)c1cnn2cccnc12	11	9.34	9.64					
Cc1ccn2ncc(C(=O)Nc3c[nH]nc3-c3cc(Cl)ccc3OC(F)F)c2n1	34	9.00	10.00					
O=C(Nc1c[nH]nc1-c1cc(Cl)ccc1OC(F)(F)F)c1cnn2cccnc12	64	8.68	9.31					
Cn1cc(NC(=O)c2cnn3cccnc23)c(-c2cc(Cl)ccc2CO)n1		7.35	8.07					
CC[C@@H]1CN(C(=O)NCC(F)(F)F)C[C@@H]1c1cnc2cnc3[nH]ccc3n12 [UPADACITINIB]				3.6				
COc1ccc(Cl)c(F)c1-c1n[nH]cc1NC(=O)c1cnn2cccnc12	15	9.02	9.54					
O=C(Nc1c[nH]nc1-c1cc(Cl)ccc1SC(F)F)c1cnn2cccnc12	26	9.07	9.64					
COc1ccc(Cl)cc1-c1nn(C)cc1NC(=O)c1cncc2cccnc12	38	8.72	9.21					
O=C(Nc1c[nH]nc1-c1ccccc1OC(F)F)c1cnn2cccnc12		8.48	9.07					
O=C(Nc1c[nH]nc1-c1cc(Cl)ccc1OC(F)F)c1cnc2[nH]ccc2n1	42	8.25	9.02					
Cc1cc(Nc2nccc3nc(-c4c(Cl)cc(C#N)cc4Cl)[nH]c23)ncn1	1300	7.64		16	0.81			
CC(C)Oc1ccc(Cl)cc1-c1nn(C)cc1NC(=O)c1cnn2cccnc12		8.10	8.70					
CCOc1ccc(Cl)cc1-c1n[nH]cc1NC(=O)c1cnn2cccnc12	54	8.85	9.10					
O=C(Nc1c[nH]nc1-c1cc(Cl)ccc1OC(F)F)c1snc2cccnc12	20	9.33	10.07					
O=C(Nc1c[nH]nc1-c1cc(Br)ccc1OC(F)F)c1cnn2cccnc12	3.3	9.92	10.33	17	1.2	3.2	86	15
Cn1cc(NC(=O)c2cnn3cccnc23)c(-c2cc(Cl)ccc2O)n1		7.49	7.89					
Nc1nn2cccnc2c1C(=O)Nc1c[nH]nc1-c1cc(Cl)ccc1OC(F)F	4	9.72	10.38	15	0.83	3.3	99	11
O=C(Nc1c[nH]nc1-c1c(OC(F)F)ccc(Cl)c1F)c1cnn2cccnc12	14	9.25	9.80					
O=C(Nc1c[nH]nc1-c1cc(Cl)ccc1OC(F)F)c1cnc2cccnn12	5	9.68	10.15					
COc1ccc(Cl)cc1-c1nn(C)cc1NC(=O)c1cncc2[nH]nnc12		6.43	6.14					
N#Cc1ccc(OC(F)F)c(-c2n[nH]cc2NC(=O)c2cnn3cccnc23)c1	22	9.05	9.57					
Cn1cc(NC(=O)c2cnn3cccnc23)c(-c2cc(Cl)ccc2Cl)n1				20		2.9		
Cc1ccc(OC(F)F)c(-c2n[nH]cc2NC(=O)c2cnn3cccnc23)c1	27	8.85	9.47					
O=C(Nc1c[nH]nc1-c1cc(Cl)ccc1OC(F)F)c1cncc2ccoc12	36	8.74	9.30					

Structure (SMILES)	IC50 (Janus Kinase (JAK)) [nM]	pKi [1]	pKi [2]	Papp A→B at 3 h, 10 µM (in vitro [3]) [×10⁻⁶ cm/s]	efflux ratio at 3 h, 10 µM (in vitro [4])	logD [5]	inhibition at 1 h, 0.1 µM (LRRK2) [%]	CLint scaled at 1 µM [6] [mL/min/kg]
COc1ccc(Cl)cc1-c1n[nH]cc1NC(=O)c1cnn2cccnc12	23	9.05	9.44					
COc1ccc(Cl)cc1-c1nn(C)cc1NC(=O)c1cncc2c[nH]nc12	20	9.22	9.11					
C[C@@H](O)c1nc2cnc3[nH]ccc3c2n1[C@H]1CCCOC1	210	8.54		6.2	0.81			
O=C(Nc1c[nH]nc1-c1cc(F)ccc1OC(F)F)c1cnn2cccnc12	34	9.15	9.72					
Cn1ncc(NC(=O)c2cnn3cccnc23)c1-c1cc(Cl)ccc1Cl	> 1000	7.41	8.46					
O=C(Nc1c[nH]nc1-c1cc(Cl)ccc1OC1CC1)c1cnn2cccnc12	21	8.89	9.35					
COc1ccc(Cl)cc1-c1nn(C)cc1NC(=O)c1cncc2[nH]cnc12		8.24	8.59					
COc1cc(O)c(Cl)cc1-c1n[nH]cc1NC(=O)c1cnn2cccnc12	140	9.51	9.80					
C#Cc1ccc2ncc(C(=O)Nc3c[nH]nc3-c3cc(Cl)ccc3OC(F)F)n2n1	13		10.11					
COc1ccc(Cl)cc1-c1nn(C)cc1NC(=O)c1cncc2cn(C)nc12	93	8.37	8.33					
COc1c(F)cc(Cl)cc1-c1n[nH]cc1NC(=O)c1cnn2cccnc12		8.04	8.92					
Cn1cc(NC(=O)c2cnn3cccnc23)c(-c2cc(Cl)ccc2CCO)n1		7.92	8.40					
O=C(Nc1c[nH]nc1-c1cc2cn[nH]c2cc1OC(F)F)c1cnn2cccnc12	40	10.12	10.28	1.6	1	1.6	89	4.4
Cn1cc(NC(=O)c2cnn3cccnc23)c(-c2cc(Cl)ccc2C2CC2)n1		9.04	9.55					
O=C(Nc1c[nH]nc1-c1cc(Cl)c(O)cc1OC(F)F)c1cnn2cccnc12	36	9.96	10.24					
O=C(Nc1c[nH]nc1-c1cc(I)ccc1OC(F)F)c1cnn2cccnc12	2.8	9.82	10.35	15	1	3.4	91	15
COc1ccc(Cl)cc1-c1nc(C)sc1NC(=O)c1cnn2cccnc12	58	9.00	9.35					
Cc1nc(-c2cc(Cl)ccc2OC(F)F)c(NC(=O)c2cnn3cccnc23)[nH]1		8.41	8.96					
O=C(Nc1c[nH]nc1-c1cc(Cl)ccc1OC(F)F)c1cnn2cc(F)cnc12		8.11	8.62					
CCn1c(C(=O)N(C2CC2)C2CC2)cc2c3c(ncn3C)c(Nc3cc(C)n(C)n3)nc21 [BMS-911543]	> 1000	6.44		16	0.94			
COc1cc2[nH]ncc2cc1-c1n[nH]cc1NC(=O)c1cnn2cccnc12	370							
COc1cc(F)c(Cl)cc1-c1n[nH]cc1NC(=O)c1cnn2cccnc12	42	8.66	9.10					
CCc1ccc(OC(F)F)c(-c2n[nH]cc2NC(=O)c2cnn3cccnc23)c1	13	9.28	9.72					
O=C(Nc1c[nH]nc1-c1cc(Cl)ccc1OC(F)F)c1cncc2scnc12	9.2	9.29	9.77					
